{"source": "patent US20130096021A1", "about": "“RECURRENT GENE FUSIONS IN BREAST CANCER” (priority 2011, published 2013)", "key": {"Notch signaling pathway": {"test_system": "Notch signaling pathway", "assay": "Notch reporter luciferase assay after DAPT treatment", "type": "cell-based, human", "settings": "lysates 24 hours after DAPT", "method": "Breast cancer cells were seeded into 24-well dishes in triplicate and allowed to attach overnight. Cells were then infected with a Notch-reporter construct Lenti-RBPJ-firefly luciferase together with a Lenti-CMV-Renilla luciferase control (SABiosciences/QIAGEN). The two lentiviral stocks were mixed at a ratio of 50 Notch reporters to 1 CMV control and a single mixture was used to infect all recipient cell lines at a MOI of 100. Following incubation for 48 hours, cell lysates were prepared and measured for Notch activity using Promega Dual Luciferase reagents and Passive Lysis Buffer. Firefly luciferase levels were normalized using corresponding Renilla luciferase levels for each cell line. To confirm that Notch pathways are activated in the index cell lines through Notch gene rearrangements, the activated NOTCH1 and NOTCH2 alleles were cloned from HCC1599, HCC2218, and HCC1187 into a pcDNA3.1 vector. These expression constructs, pcDNA3.1-1599-NOTCH1, pcDNA3.1-2218-NOTCH1, and pcDNA3.1-1187-NOTCH2 and positive control NOTCH1-NICD, were individually transfected into 293T cells along with the pGL4-RBPJ-4X reporter plasmid and pTKRenilla luciferase control plasmid. Cells were harvested for luciferase activity assays 24 hours after transfection and assayed as above.\nNotch fusion alleles provide a target for therapeutic intervention. The three characterized Notch fusions represent two functional classes. The first class, exemplified by the HCC2218 and HCC1599 fusions, produces a protein similar to that produced by the ADAM17/TACE catalyzed S2 cleavage, which occurs during ligand activation of the Notch pathway. The second class, exemplified by the HCC1187 fusion, produces a protein similar to the NICD produced after cleavage at S3 by γ-secretase. […] Each of the three cell lines was treated with the γ-secretase inhibitor DAPT 31, and luciferase activity was measured in cell lysates 24 hours later. […] A panel of six breast cell lines were treated with DAPT at 0, 0.3, 1, and 3 μM, and cell proliferation was measured using a WST-1 assay over a six day time course."}, "[1]": {"test_system": "Notch target genes CCND1, MYC, and HEY1", "assay": "Expression of Notch target genes after DAPT treatment", "type": "cell-based, human", "settings": "24-hour time course, cell lines with γ-secretase dependent Notch fusions"}, "HCC2218 cells": {"test_system": "HCC2218 cells", "assay": "WST-1 cell proliferation assay with DAPT", "type": "cell-based, human", "settings": "DAPT 0.3, 1, and 3 μM, six day time course", "method": "(§1) For cell proliferation assays, cells were seeded into 96-well plates in triplicate and allowed to attach overnight before drug treatment. The γ-secretase inhibitor DAPT (EMD Biosciences) was added to the cultures the next day at concentrations of 0, 0.3, 1, and 3 μM. Relative cell numbers were measured by WST-1 assays at indicated time points following the manufacturer's instructions (Roche).\n(§2) Notch fusion alleles provide a target for therapeutic intervention. The three characterized Notch fusions represent two functional classes. The first class, exemplified by the HCC2218 and HCC1599 fusions, produces a protein similar to that produced by the ADAM17/TACE catalyzed S2 cleavage, which occurs during ligand activation of the Notch pathway. The second class, exemplified by the HCC1187 fusion, produces a protein similar to the NICD produced after cleavage at S3 by γ-secretase. The first class requires cleavage at S3 site by γ-secretase to release NICD, and thus would be expected to be sensitive to γ-secretase inhibitors (GSIs). The second class would be unaffected by GSIs, as the fusion generates an ORF similar to NICD. To test this, stable Notch reporter cell lines were established from each of the three Notch fusion positive carcinoma lines by infection with a lentivirus carrying the Notch responsive promoter driving firefly luciferase. Each of the three cell lines was treated with the γ-secretase inhibitor DAPT 31, and luciferase activity was measured in cell lysates 24 hours later. […] A panel of six breast cell lines were treated with DAPT at 0, 0.3, 1, and 3 μM, and cell proliferation was measured using a WST-1 assay over a six day time course."}, "[2]": {"test_system": "other breast cell lines not expressing Notch fusion alleles", "assay": "WST-1 cell proliferation assay with DAPT", "type": "cell-based, human", "settings": "DAPT 0.3, 1, and 3 μM, six day time course", "method": "as §1, §2"}, "HCC1187 cells": {"test_system": "HCC1187 cells", "assay": "WST-1 cell proliferation assay with DAPT", "type": "cell-based, human", "settings": "DAPT 0.3, 1, and 3 μM, six day time course", "method": "as §1, §2"}, "HCC1599 cells": {"test_system": "HCC1599 cells", "assay": "WST-1 cell proliferation assay with DAPT", "type": "cell-based, human", "settings": "DAPT 0.3, 1, and 3 μM, six day time course", "method": "as §1, §2"}, "[3]": {"test_system": "γ-secretase-cleaved NOTCH1 (NICD)", "assay": "Western blot of NICD levels after DAPT treatment", "type": "cell-based, human", "method": "For MAST2 fusion protein detection, cell pellets were sonicated in NP40 lysis buffer (50 mM Tris-HCl, 1% NP40, pH 7.4, Sigma), complete protease inhibitor mixture (Roche) and phosphatase inhibitor (EMD bioscience) Immunoblot analysis for MAST2 was carried out using MAST2 antibody from Novus Biologicals. Human β-actin antibody (Sigma) was used as a loading control. For NOTCH1 protein detection, cells were lysed in RIPA buffer containing protease inhibitor cocktail (Pierce). Proteins were separated by SDS-PAGE, transferred to nitrocellulose membranes and probed with antibodies recognizing total NOTCH1 (Cell Signaling), γ-secretase-cleaved NOTCH1 (NICD, Cell Signaling), or beta-actin (Santa Cruz). The signal was detected by chemiluminescence using Immun-Star Western C reagents (Bio-Rad).\nNotch fusion alleles provide a target for therapeutic intervention. The three characterized Notch fusions represent two functional classes. […] Each of the three cell lines was treated with the γ-secretase inhibitor DAPT 31, and luciferase activity was measured in cell lysates 24 hours later. […] A panel of six breast cell lines were treated with DAPT at 0, 0.3, 1, and 3 μM, and cell proliferation was measured using a WST-1 assay over a six day time course."}}}
{"compound": "C[C@H](NC(=O)Cc1cc(F)cc(F)c1)C(=O)N[C@H](C(=O)OC(C)(C)C)c1ccccc1", "note": "[DAPT, N—[N-(3,5-difluorophenacetyl)-L-alanyl]-S-phenylglycine t-butyl ester]", "values": [{"measurement": "Notch reporter activity (luciferase)", "setting": "Notch signaling pathway; HCC1187 stable Notch reporter line", "value": "only slightly diminished"}, {"measurement": "Notch reporter activity (luciferase)", "setting": "Notch signaling pathway; HCC1599 stable Notch reporter line", "value": "dramatic reduction"}, {"measurement": "Notch reporter activity (luciferase)", "setting": "Notch signaling pathway; HCC2218 stable Notch reporter line", "value": "dramatic reduction"}, {"measurement": "Notch target gene expression", "setting": "[1]", "value": "repressed"}, {"measurement": "cell proliferation", "setting": "HCC2218 cells", "value": "significant reduction in proliferation"}, {"measurement": "cell proliferation", "setting": "[2]", "value": "no reduction in proliferation"}, {"measurement": "cell proliferation", "setting": "HCC1187 cells", "value": "no reduction in proliferation"}, {"measurement": "cell proliferation", "setting": "HCC1599 cells", "value": "dramatic reduction in proliferation"}, {"measurement": "tumor volume", "setting": "HCC1599 xenograft; HCC1599 xenograft in immunodeficient mice, DAPT IP, versus untreated controls", "value": "significantly reduced"}, {"measurement": "overall body weight", "setting": "HCC1599 xenograft; mouse, in vivo", "value": "No effect"}, {"measurement": "NICD levels (Western blot)", "setting": "[3]; HCC1599 cells after DAPT treatment", "value": "nearly complete elimination"}, {"measurement": "NICD levels (Western blot)", "setting": "[3]; HCC2218 cells after DAPT treatment", "value": "dramatically reduced"}]}
